According to ChEMBL document CHEMBL4602605, “Fluoroquinolones structural and medicinal developments (2013-2018): Where are we now?” (Bioorg Med Chem, 2019):
Converted amounts (≈) assume the structure as drawn. Values belong to the compound of their own block, whether it stands above or below them.

Tests used:
Escherichia coli [1] = experiment: Antimicrobial activity against Escherichia coli ATCC 8739 by agar dilution method; type: functional
Staphylococcus aureus [2] = experiment: Antimicrobial activity against Staphylococcus aureus ATCC 6538 by agar dilution method; type: functional
Pseudomonas aeruginosa [3] = experiment: Antimicrobial activity against Pseudomonas aeruginosa ATCC 9027 by agar well diffusion method; type: functional
Pseudomonas aeruginosa [4] = experiment: Antimicrobial activity against Pseudomonas aeruginosa ATCC 27853 incubated for 18 to 24 hrs by disk diffusion method; type: functional
Escherichia coli [5] = experiment: Antimicrobial activity against Escherichia coli ATCC 25922 incubated for 18 to 24 hrs by disk diffusion method; type: functional
Staphylococcus aureus [6] = experiment: Antimicrobial activity against Staphylococcus aureus ATCC 25923 incubated for 18 to 24 hrs by disk diffusion method; type: functional
Bacillus subtilis = experiment: Antimicrobial activity against Bacillus subtilis 10B incubated for 18 to 24 hrs by disk diffusion method; type: functional
[7] = system: Staphylococcus epidermidis; experiment: Antimicrobial activity against methicillin-susceptible Staphylococcus epidermidis clinical isolate incubated for 16 hrs by CLSI based agar dilution method; type: functional
[8] = system: Staphylococcus epidermidis; experiment: Antimicrobial activity against methicillin-resistant Staphylococcus epidermidis clinical isolate incubated for 16 hrs by CLSI based agar dilution method; type: functional
Staphylococcus aureus [9] = experiment: Antimicrobial activity against methicillin-susceptible Staphylococcus aureus clinical isolate incubated for 16 hrs by CLSI based agar dilution method; type: functional
Staphylococcus aureus [10] = experiment: Antimicrobial activity against methicillin-resistant Staphylococcus aureus clinical isolate incubated for 16 hrs by CLSI based agar dilution method; type: functional
Escherichia coli [11] = experiment: Antimicrobial activity against Escherichia coli ATCC 700603 incubated for 16 hrs by CLSI-based agar dilution method; type: functional; details: ATCC 700603, 16 h
Klebsiella pneumoniae = experiment: Antimicrobial activity against Klebsiella pneumoniae ATCC 29522 incubated for 16 hrs by CLSI-based agar dilution method; type: functional; details: ATCC 29522, 16 h
Staphylococcus aureus [12] = experiment: Antimicrobial activity against Staphylococcus aureus ATCC 25923 incubated for 18 to 24 hrs; type: functional
Staphylococcus aureus [13] = experiment: Antimicrobial activity against methicillin-resistant Staphylococcus aureus ATCC 12-1 incubated for 18 to 24 hrs; type: functional
[14] = system: Staphylococcus epidermidis; experiment: Antimicrobial activity against methicillin-resistant Staphylococcus epidermidis 12-1 incubated for 18 to 24 hrs; type: functional
Escherichia coli [15] = experiment: Antimicrobial activity against Escherichia coli ATCC 25922 incubated for 18 to 24 hrs; type: functional
Pseudomonas aeruginosa [16] = experiment: Antimicrobial activity against Pseudomonas aeruginosa ATCC 12-12 incubated for 18 to 24 hrs; type: functional
PC-3 = experiment: Growth inhibition of human PC3 cells by MTT assay; type: functional, cell-based
Aspergillus clavatus = experiment: Antifungal activity against Aspergillus clavatus after overnight incubation by agar well diffusion method; type: functional

MIC (Escherichia coli [1]): 0.3 µg/mL (≈ 0.816 µM) | MIC (Staphylococcus aureus [2]): 1.21 µg/mL (≈ 3.29 µM) | MIC (Pseudomonas aeruginosa [3]): 4.83 µg/mL (≈ 13.1 µM)
Structure (SMILES): CCn1cc(C(=O)O)c(=O)c2cc(F)c(N3CCNC(C)C3)c(Cl)c21 (stereo unspecified)

Structure (SMILES): CCn1cc(C(=O)O)c(=O)c2cc(F)c(N3CCNCC3)c(Cl)c21
MIC (Escherichia coli [1]): 2 µg/mL (≈ 5.65 µM) | MIC (Staphylococcus aureus [2]): 4 µg/mL (≈ 11.3 µM) | MIC (Pseudomonas aeruginosa [3]): 32 µg/mL (≈ 90.5 µM)

MIC (Escherichia coli [1]): 16 µg/mL (≈ 50 µM) | MIC (Staphylococcus aureus [2]): 0.32 µg/mL (≈ 0.999 µM) | MIC (Pseudomonas aeruginosa [3]): 128 µg/mL (≈ 400 µM)
Structure (SMILES): CCn1cc(C(=O)O)c(=O)c2cc(F)c(N3CCOCC3)cc21

MIC (Escherichia coli [1]): 16 µg/mL (≈ 52.6 µM) | MIC (Staphylococcus aureus [2]): 0.25 µg/mL (≈ 0.822 µM) | MIC (Pseudomonas aeruginosa [3]): 16 µg/mL (≈ 52.6 µM)
Structure (SMILES): CCn1cc(C(=O)O)c(=O)c2cc(F)c(N3CCCC3)cc21

MIC (Pseudomonas aeruginosa [4]): 116 µg/mL (≈ 432 µM) | MIC (Escherichia coli [5]): 0.355 µg/mL (≈ 1.32 µM) | MIC (Staphylococcus aureus [6]): 0.535 µg/mL (≈ 1.98 µM) | MIC (Bacillus subtilis): 0.125 µg/mL (≈ 0.464 µM)
Structure (SMILES): CCn1cc(C(=O)O)c(=O)c2cc(F)c(Cl)cc21

Structure (SMILES): O=C(O)c1cn(C2CC2)c2cc(N3CCN(CC(O)Cn4cc([N+](=O)[O-])nc4Cl)CC3)c(F)cc2c1=O (stereo unspecified)
MIC [7]: 2 µg/mL (≈ 3.74 µM) | MIC [8]: 2 µg/mL (≈ 3.74 µM) | MIC (Staphylococcus aureus [9]): 4 µg/mL (≈ 7.48 µM) | MIC (Staphylococcus aureus [10]): 32 µg/mL (≈ 59.8 µM) | MIC (Escherichia coli [11]): 16 µg/mL (≈ 29.9 µM) | MIC (Klebsiella pneumoniae): > 32 µg/mL

MIC (Escherichia coli [1]): 32 µg/mL (≈ 101 µM) | MIC (Staphylococcus aureus [2]): < 0.125 µg/mL | MIC (Pseudomonas aeruginosa [3]): 1.28 µg/mL (≈ 4.02 µM)
Structure (SMILES): CCn1cc(C(=O)O)c(=O)c2cc(F)c(N3CCCCC3)cc21

Structure (SMILES): CO/N=C1\CCN(c2c(F)cc3c(=O)c(C(=O)O)cn(C4CC4)c3c2OC)CC1NC(=O)CNC(=O)CN (stereo unspecified)
MIC (Staphylococcus aureus [12]): 4 µg/mL (≈ 7.51 µM) | MIC (Staphylococcus aureus [13]): > 128 µg/mL | MIC [14]: 64 µg/mL (≈ 120 µM) | MIC (Escherichia coli [15]): 16 µg/mL (≈ 30 µM) | MIC (Pseudomonas aeruginosa [16]): > 128 µg/mL

MIC (Pseudomonas aeruginosa [4]): > 500 µg/mL | MIC (Escherichia coli [5]): 120 µg/mL (≈ 317 µM) | MIC (Staphylococcus aureus [6]): 310 µg/mL (≈ 819 µM) | MIC (Bacillus subtilis): > 500 µg/mL
Structure (SMILES): CCn1cc(C(=O)O)c(=O)c2cc(F)c(Nn3c(=O)cc[nH]c3=O)c(F)c21

Structure (SMILES): CO/N=C1\CCN(c2c(F)cc3c(=O)c(C(=O)O)cn(C4CC4)c3c2OC)CC1NC(=O)CN (stereo unspecified)
MIC (Staphylococcus aureus [12]): 0.25 µg/mL (≈ 0.526 µM) | MIC (Staphylococcus aureus [13]): 32 µg/mL (≈ 67.3 µM) | MIC [14]: 32 µg/mL (≈ 67.3 µM) | MIC (Escherichia coli [15]): 4 µg/mL (≈ 8.41 µM) | MIC (Pseudomonas aeruginosa [16]): 32 µg/mL (≈ 67.3 µM)

IC50 (PC-3): 12 µg/mL (≈ 21 µM)
Structure (SMILES): COc1c(N2CCN(C)CC2)c(F)cc2c(=O)c(C(=O)N/N=C\c3cc(Br)ccc3O)cn(C3CC3)c12
inhibition zone (IZ) (Aspergillus clavatus): 12 mm

Structure (SMILES): CO/N=C1\CCN(c2c(F)cc3c(=O)c(C(=O)O)cn(C4CC4)c3c2OC)CC1NC(=O)[C@H](N)CC(C)C (stereo partly specified)
MIC (Staphylococcus aureus [12]): 0.25 µg/mL (≈ 0.47 µM) | MIC (Staphylococcus aureus [13]): 64 µg/mL (≈ 120 µM) | MIC [14]: 64 µg/mL (≈ 120 µM) | MIC (Escherichia coli [15]): 4 µg/mL (≈ 7.52 µM) | MIC (Pseudomonas aeruginosa [16]): 128 µg/mL (≈ 241 µM)

Structure (SMILES): CO/N=C1\CCN(c2c(F)cc3c(=O)c(C(=O)O)cn(C4CC4)c3c2OC)CC1NC(=O)[C@H](C)N (stereo partly specified)
MIC (Staphylococcus aureus [12]): 0.125 µg/mL (≈ 0.255 µM) | MIC (Staphylococcus aureus [13]): 64 µg/mL (≈ 131 µM) | MIC [14]: 32 µg/mL (≈ 65.4 µM) | MIC (Escherichia coli [15]): 4 µg/mL (≈ 8.17 µM) | MIC (Pseudomonas aeruginosa [16]): 64 µg/mL (≈ 131 µM)

MIC (Pseudomonas aeruginosa [4]): > 500 µg/mL | MIC (Escherichia coli [5]): 510 µg/mL (≈ 1550 µM) | MIC (Staphylococcus aureus [6]): 515 µg/mL (≈ 1570 µM) | MIC (Bacillus subtilis): > 500 µg/mL
Structure (SMILES): CCn1cc(C(=O)O)c(=O)c2cc(F)c(Nc3ncccn3)cc21

Structure (SMILES): CO/N=C1\CCN(c2c(F)cc3c(=O)c(C(=O)O)cn(C4CC4)c3c2OC)CC1NC(=O)[C@@H](N)C(C)C (stereo partly specified)
MIC (Staphylococcus aureus [12]): 0.25 µg/mL (≈ 0.483 µM) | MIC (Staphylococcus aureus [13]): 64 µg/mL (≈ 124 µM) | MIC [14]: 64 µg/mL (≈ 124 µM) | MIC (Escherichia coli [15]): 4 µg/mL (≈ 7.73 µM) | MIC (Pseudomonas aeruginosa [16]): 32 µg/mL (≈ 61.8 µM)

Structure (SMILES): COc1c(N2CCN(CC(O)Cn3cc([N+](=O)[O-])nc3C)C(C)C2)c(F)cc2c(=O)c(C(=O)O)cn(C3CC3)c12 (stereo unspecified)
MIC [7]: 1 µg/mL (≈ 1.79 µM) | MIC [8]: 1 µg/mL (≈ 1.79 µM) | MIC (Staphylococcus aureus [9]): 1 µg/mL (≈ 1.79 µM) | MIC (Staphylococcus aureus [10]): 32 µg/mL (≈ 57.3 µM) | MIC (Escherichia coli [11]): 8 µg/mL (≈ 14.3 µM) | MIC (Klebsiella pneumoniae): > 32 µg/mL

Structure (SMILES): CO/N=C1\CCN(c2c(F)cc3c(=O)c(C(=O)O)cn(C4CC4)c3c2OC)CC1NC(=O)[C@H](N)Cc1ccc(O)cc1 (stereo partly specified)
MIC (Staphylococcus aureus [12]): 2 µg/mL (≈ 3.44 µM) | MIC (Staphylococcus aureus [13]): > 128 µg/mL | MIC [14]: 64 µg/mL (≈ 110 µM) | MIC (Escherichia coli [15]): 16 µg/mL (≈ 27.5 µM) | MIC (Pseudomonas aeruginosa [16]): 128 µg/mL (≈ 220 µM)

Structure (SMILES): COc1c(N2CCN(C[C@H](O)Cn3cc([N+](=O)[O-])nc3C)C(C)C2)c(F)cc2c(=O)c(C(=O)O)cn(C3CC3)c12 (stereo partly specified)
MIC [7]: 32 µg/mL (≈ 57.3 µM) | MIC [8]: 32 µg/mL (≈ 57.3 µM) | MIC (Staphylococcus aureus [9]): 32 µg/mL (≈ 57.3 µM) | MIC (Staphylococcus aureus [10]): 16 µg/mL (≈ 28.6 µM) | MIC (Escherichia coli [11]): 32 µg/mL (≈ 57.3 µM) | MIC (Klebsiella pneumoniae): 32 µg/mL (≈ 57.3 µM)

Structure (SMILES): COc1c(N2CCCC(N(C)CC(O)Cn3cc([N+](=O)[O-])nc3C)C2)c(F)cc2c(=O)c(C(=O)O)cn(C3CC3)c12 (stereo unspecified)
MIC [7]: 0.5 µg/mL (≈ 0.873 µM) | MIC [8]: 0.125 µg/mL (≈ 0.218 µM) | MIC (Staphylococcus aureus [9]): 0.5 µg/mL (≈ 0.873 µM) | MIC (Staphylococcus aureus [10]): 8 µg/mL (≈ 14 µM) | MIC (Escherichia coli [11]): 4 µg/mL (≈ 6.99 µM) | MIC (Klebsiella pneumoniae): 2 µg/mL (≈ 3.49 µM)

IC50 (PC-3): 16.3 µg/mL (≈ 34.1 µM)
Structure (SMILES): COc1c(N2CCN(C)CC2)c(F)cc2c(=O)c(C(=O)N/N=C\c3ccccc3)cn(C3CC3)c12
inhibition zone (IZ) (Aspergillus clavatus): 11 mm

MIC (Escherichia coli [1]): 1.28 µg/mL (≈ 3.85 µM) | MIC (Staphylococcus aureus [2]): < 0.125 µg/mL | MIC (Pseudomonas aeruginosa [3]): 1.28 µg/mL (≈ 3.85 µM)
Structure (SMILES): CCn1cc(C(=O)O)c(=O)c2cc(F)c(N3CCCC(C)C3)cc21 (stereo unspecified)

MIC (Escherichia coli [1]): 128 µg/mL (≈ 363 µM) | MIC (Staphylococcus aureus [2]): 2 µg/mL (≈ 5.67 µM) | MIC (Pseudomonas aeruginosa [3]): 128 µg/mL (≈ 363 µM)
Structure (SMILES): CCn1cc(C(=O)O)c(=O)c2cc(F)c(N3CCCCC3)c(Cl)c21
